Results on nine compounds are retold here after ChEMBL document CHEMBL1268936, “Towards a systematic characterization of the antiprotozoal activity landscape of benzimidazole derivatives” (Bioorg Med Chem, 2010).

One assay concerns Trichomonas vaginalis. Nature of the assay: Antiprotozoal activity against Trichomonas vaginalis. It counts as functional, organism-based.
A further assay has as its system Giardia intestinalis. Nature of the assay: Antiprotozoal activity against Giardia intestinalis. It counts as functional, organism-based. The note with it: Giardia duodenalis.

For orientation: IC50 means the point on the concentration scale where inhibition reaches its midpoint. On to `CCCSc1ccc2c(c1)nc(C(F)(F)F)n2C`, for which the IC50 with Trichomonas vaginalis was 200 nM; in the assay with Giardia intestinalis, 10500 nM.
On to `CCCSc1ccc2nc(C(F)(F)F)n(C)c2c1`, for which the IC50 is 2570 nM in the assay on Trichomonas vaginalis and 1410 nM in the assay with Giardia intestinalis.
For `Cn1c(C(F)(F)F)nc2cc(C(=O)c3ccccc3)ccc21`, in that order: 29500 nM and 1100 nM.
With `Cn1c(C(F)(F)F)nc2ccc(C(=O)c3ccccc3)cc21`, the concentration for half-maximal inhibition (IC50) in the assay on Trichomonas vaginalis was 10700 nM; in the assay with Giardia intestinalis, 1290 nM.
For `FC(F)(F)C(F)(F)c1nc2cc(Cl)c(Cl)cc2[nH]1`, in that order: 302 nM and 562 nM.
For `O=[N+]([O-])c1cc2nc(C(F)(F)F)[nH]c2cc1[N+](=O)[O-]` the same measures were 575 nM and 240 nM.
For `FC(F)(F)C(F)(F)c1nc2c(Br)c(Br)c(Br)c(Br)c2[nH]1` the same measures were 10000 nM and 22.9 nM.
Consider `FC(F)(F)c1nc2c(Br)c(Br)c(Br)c(Br)c2[nH]1`, for which the 50% inhibitory concentration (IC50) in the assay on Trichomonas vaginalis was 2 nM; with Giardia intestinalis, 56.2 nM.
For `FC(F)(F)c1nc2cc(Br)c(Br)cc2[nH]1`, in that order: 219 nM and 120 nM.
